Laboratory results published in paper PMC8548882, “The Trp-rich Antimicrobial Amphiphiles With Intramolecular Aromatic Interactions for the Treatment of Bacterial Infection” (Frontiers in Microbiology, 2021).
Ends that are not written are not given here.

Key:
MRSA 43300 = type: cell-based, Staphylococcus aureus ATCC 43300; conditions: microtiter dilution, 1×10^5CFU/ml, 18–24h at 37°C, visible turbidity
Text: (§1) The tested strains were kindly provided by the laboratory of Veterinary Microbiology and Immunology, the College of Veterinary Medicine, Northeast Agricultural University (gram-negative bacteria, Salmonella enterica serovar typhimurium C77-31, Salmonella typhimurium ATCC 14028, Escherichia coli ATCC 25922, Pseudomonas aeruginosa ATCC 27853 and gram-positive bacteria, Staphylococcus aureus ATCC 29213, Staphylococcus aureus ATCC 43300, Staphylococcus epidermidis ATCC 12228, Staphylococcus aureus ATCC 25923).
(§2) The famous microtiter dilution, National Committee for Clinical Laboratory Standards, was adopted to measure the antimicrobial ability of the engineering peptides ([Chou et al., 2016]). In brief, the 50μl with serial dilution was incubated with the same volume bacteria (1×10^5CFU/ml in midi-logarithmic phase) in a 96-well plate 18–24h at 37°C. The positive control was the bacteria treated with culture medium and the negative control was merely culture medium. The MICs (minimum inhibitory concentrations) were defined as the lowest concentration of peptides that prevented the production of visible turbidity ([Tossi et al., 2000]).

RAW 264.7 cells = type: cell-based, murine; conditions: RAW264.7; ratio of IC50 to GM
Method: (§3) The MTT (3-[4,5 dimethylthiozol-2-yl]-2,5-diphenylterazoliumbromide) dye was selected to analyze the cytotoxicity of peptides against the murine macrophage cell RAW 264.7 (National Collection of Authenticated Cell Cultures, Shanghai, China), human embryonic kidneys (HK293T), and the porcine intestinal epithelial cells (IPEC-J2) as in our previously study ([Li et al., 2020]). In short, the cells (10^4 cells/well) were seeded into 96-well plates and were cultivated overnight. Then the peptides with different final concentration (2μM, 4μM, 8μM, 16μM, 32μM, 64μM, and 128μM) were introduced into the plate and challenged with cells for 24h. After overnight incubation, the 50μl MTT (0.5mg/ml) was added into the cell cultures for 4h. Then the plate was centrifuged to discard the supernatants and obtain the formazan crystals. The DMSO (dimethyl sulfoxide) was employed as a solvent to dissolve the formazan crystals on the bottom of the plate and the optical density was read at 492nm with a microplate reader.

[1] = system: hRBC, IPEC-J2, HEK 293T, RAW264.7; conditions: hRBC, IPEC-J2, HEK 293T, RAW264.7; listed as F5
Method: Besides, the therapeutic index of peptide in the mammalian eukaryotic cell (RAW 264.7, HEK 293T, and IPEC J2) was also calculated to study the biocompatibility of peptides.

P.aeruginosa 27853 = type: cell-based, Pseudomonas aeruginosa ATCC 27853; conditions: 27853
Text: as §1, §2

S.aureus 29213 = type: cell-based, Staphylococcus aureus ATCC 29213; conditions: 29213
Text: as §1, §2

IPEC-J2 cells = type: cell-based, porcine; conditions: IPEC-J2; ratio of IC50 to GM
Method: as §3

[2] = system: panel of gram-negative and gram-positive bacteria; conditions: over the eight strains of Table 2
Method: as §2

S.typhimurium 14028 = type: cell-based, Salmonella typhimurium ATCC 14028
Text: as §1

S. aureus ATCC 29213 = experiment: Transmission electron microscope; type: cell-based, Staphylococcus aureus ATCC 29213; conditions: MIC (2μM)
Text: (§4) The sample for the test of the Transmission Electron Microscope (TEM) was to follow the same procedure as SEM. After the overnight pre-fixation with 2.5% glutaraldehyde, the bacteria was then post-fixed with 2% osmium tetroxide (sealed ampule, Shanghai, China). Afterward, the samples were dehydrated with ethanol at a series of concentrations (50, 70, 90, and 100%) and substituted the 100% ethanol with 50% ethanol+50% acetone, 100% acetone, 50% acetone+50% epoxy resin, and 100% epoxy resin successively. Finally, the samples were sectioned and stained for observation.

S.aureus 25923 = type: cell-based, Staphylococcus aureus ATCC 25923; conditions: 25923
Text: as §1, §2

S.epidermidis 12228 = type: cell-based, Staphylococcus epidermidis ATCC 12228
Text: as §1

P. aeruginosa 27853 = type: cell-based, Pseudomonas aeruginosa ATCC 27853
Method: The famous microtiter dilution, National Committee for Clinical Laboratory Standards, was adopted to measure the antimicrobial ability of the engineering peptides ([Chou et al., 2016]). In brief, the 50μl with serial dilution was incubated with the same volume bacteria (1×10^5CFU/ml in midi-logarithmic phase) in a 96-well plate 18–24h at 37°C. The positive control was the bacteria treated with culture medium and the negative control was merely culture medium. […] The antimicrobial performance of peptides against P. aeruginosa 27853 cells was further studied under the complicated physiological conditions ([Lyu et al., 2016]). […] The serum was also taken into the consideration for the adverse impact on the antimicrobial effect of peptides.

normal skin tissue = conditions: mouse, in vivo, sc, 5 mg/kg
Method: The potential toxicity of peptides to normal skin tissues was further tested by TUNEL assay ([Huang et al., 2009]). […] The 100μl 100% DMSO treatment served as a positive control, which was well-known for its toxicity to induce skin necrosis. Then, the skin samples were harvested and were subjected to TUNEL assay and counterstain with 4,6-diamidino-2-phenylindole (DAPI).

E. coli 25922 = type: cell-based, Escherichia coli ATCC 25922
Text: as §1

P. aeruginosa ATCC 27853 = experiment: Transmission electron microscope; type: cell-based, Pseudomonas aeruginosa ATCC 27853; conditions: MIC (1μM)
Text: as §4

Substance: VKKWVKKWVKKWVKKW-NH2 [VW5]
- MIC (MRSA 43300): 2 µM
- Therapeutic index (TI) (RAW 264.7 cells): 1860.86
- GMTI, geometric mean of TI of various cell lines [1]: > 1218.17
- MIC (P.aeruginosa 27853): 1 µM
- MIC (S.aureus 29213): 2 µM
- Therapeutic index (TI) (IPEC-J2 cells): 3051.34
- GMMIC, geometric mean of the MICs [2]: 1.68 µM
- MIC (S.typhimurium 14028): 2 µM
- ultrastructure (TEM) (S. aureus ATCC 29213): diffused around the shrunken cells
- MIC (S.aureus 25923): 2 µM
- MIC (S.epidermidis 12228): 2 µM
- change of MIC compared to the control (P. aeruginosa 27853; 12.5% serum): did not change
- increase of MIC compared to the control (P. aeruginosa 27853; 50% serum): fourfold
- apoptotic cells in epidermal layer (TUNEL) (normal skin tissue): no obvious green fluorescence
- MIC (E. coli 25922): 2 µM
- ultrastructure (TEM) (P. aeruginosa ATCC 27853): cellular contents of bacterial cells leaked
